In patent US10766914B2, “DNA alkylating agents” (OBI PHARMA, INC., priority 2015, dated 2020):
Read-outs that look alike come from different tables or passages of the source.

Experiments:
[1] = Example 4-B body weight change, A549 xenograft study; format: in vivo, female nude mice (nu/nu); conditions: 10 mg/kg ip QD × 5/wk × 2 wks
Experimental: (§1) Cells were mixed with Matrigel (50% with exception for 30% in the H460) and 0.2 ml per mouse were subcutaneously implanted to the flank area of the animals. When tumor size reached 100-150 250 mm3, mice were randomized into experimental or vehicle groups with 10 mice/group and treatment was started (Day 1). The tested compounds were formulated in 5% DMSO in D5W. The regimens employed in the examples include IP, QD×5/wk (5 days on, 2 days off) as one cycle, for a total of 2 cycles; IP, once; IP, weekly for total 3 weeks; and IV, weekly for 3 weeks. Tumor growth and body weight were measured twice a week. Tumor volume was calculated as (length×width2)/2. Drug efficacy was assessed as Tumor Growth Inhibition (TGI) and Tumor Growth Delay (TGD). TGI was defined as (1−ΔT/ΔC)×100, where ΔT/ΔC presented the ratio of the change in mean (or median, if variation within the group was relatively large) tumor volume of the treated group and of the control group. TGD was calculated as the extra days for the treated tumor to reach 500 mm3 or 1000 mm3 as compared to the control group. Animals were culled when individual tumor size reached over 2000 mm3 or mean tumor volume exceeded 1000 mm3 in the group. Data are expressed as the mean±SEM. One-way analysis of variance with Dunnett post comparison test (GraphPad Prism 4) or two-tailed student's t-test were used for analysis. A P level <0.05 was considered statistically significant.
Antitumor effects of compounds provided herein were determined on A 549 non-small cell lung xenograft model in comparison with a chemotherapy agent, thiotepa. The dosing was as follows. Daily IP dosing: 5 doses then 2 days off then 5 more doses starting at 110 mm^3 tumors on day 1 (10 animals per group average tumor volume). The antitumor effects and the safety of administration are graphically illustrated below.

[2] = test system: A 549 non-small cell lung xenograft; experiment: Example 4-B antitumor efficacy, ectopic A549 NSCLC xenograft model; format: in vivo, female nude mice (nu/nu); conditions: 10 mg/kg ip QD × 5/wk × 2 wks
From the text: (§2) Specific pathogen-free homozygous female nude mice (nu/nu, Charles River Laboratories) were used. Mice were given food and water ad libitum and housed in microisolator cages. Four to six week old animals were identified by microchips (Locus Technology, Manchester, Md., USA) at the time of the experiments. All animal studies were approved by the Institutional Animal Care and Use Committee at Threshold Pharmaceuticals, Inc.
(§3) All cell lines were from the American Type Culture Collection (ATCC, Rockville, Md., USA).
as §1
The dosing was as follows. Daily IP dosing: 5 doses then 2 days off then 5 more doses starting at 110 mm^3 tumors on day 1 (10 animals per group average tumor volume).
Doses were selected by first doing a toxicity test in CD1 mice as described above. The compounds were tested against Thio-tepa.

H460 cells = experiment: Proliferation assay in H460 cells (2 hr exposure, AlamarBlue); format: cell-based, human; conditions: Homo sapiens, NCI-H460, 2 hrs exposure, wash, 70 hrs growth, read-out: IC 50 in proliferation assay in H460 cells
Summary of the method: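 H460 cells seeded at 4×10^3/well, grown 24 h, then exposed to compound for 2 h at 37 °C. Drug was washed off and cells were regrown 70 h in fresh medium. Viable cells were read by AlamarBlue, and IC50 was taken as the concentration giving 50% growth inhibition.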

[3] = test system: A375 melanoma human tumor xenograft; experiment: Example 4-C antitumor efficacy, ectopic A375 melanoma xenograft model; format: in vivo, female nude mice (nu/nu); conditions: qd × 5 × 2, ip; for TGD 500 / TGD 1000: 10 mpk; for inhibition in vivo at 10 mg/kg: Mus musculus, A-375, 10 mpk, read-out: TGI
From the text: as §2, §3, §1
his study employed an A375 melanoma human tumor xenograft model and various compounds provided herein were compared to thiotepa and the approved anti melanoma drug, nab-Paclitaxel.

[4] = Example 4-C body weight change, A375 xenograft study; format: in vivo, female nude mice (nu/nu); conditions: 10 mpk, qd × 5 × 2, ip
Experimental: as §1
his study employed an A375 melanoma human tumor xenograft model and various compounds provided herein were compared to thiotepa and the approved anti melanoma drug, nab-Paclitaxel. The antitumor effects and the safety of administration are graphically illustrated below.

[5] = Pharmacokinetics in CD-1 mice following a single intraperitoneal dose (parent and TH2660); conditions: mouse, in vivo, ip, parent compound
Experimental: The pharmacokinetics of TH2873, TH2883, TH2888, TH2890, TH2901 and TH2926 were determined in CD-1 mice following a single intraperitoneal dose.
The pharmacokinetics of TH2660, the active metabolite, following a single intraperitoneal dose of TH2873, TH2883, TH2888, TH2890, TH2901 and TH2926 are shown below.

A549 NSCLC xenograft = experiment: Example 4-D antitumor efficacy, ectopic A549 NSCLC xenograft model; format: in vivo, female nude mice (nu/nu); conditions: 40 mg/kg IP QD × 5/wk × 2 wks
From the text: as §2, §3, §1
(§4) The compounds were tested in another A549 model. The compounds were dosed as follows. Daily IP dosing: 5 doses then 2 days off then 5 more doses starting at 100 mm^3 tumors on day 1 (10 animals per group average tumor volume). The antitumor effects and the safety of administration are graphically illustrated below.

[6] = Pharmacokinetics of TH2953 in NU/NU mice with A549 and H460 xenografts; format: in vivo, Mouse/Nu-Foxn 1nu NU/NU mice; conditions: Nu-Foxn1nu NU/NU, mouse; for Kp: intraperitoneal, A549 tumor xenograft, 10 and 40 mg/kg ip; for AUC / Cmax / Tmax / half-life: plasma, ip
Experimental: The pharmacokinetics of TH2660, the active metabolite, following a single iintraperitoneal dose of TH2953 are shown below.
A549 and H460, following a single intraperitoneal dose of 10 and 40 mg/kg for A549 and 10 mg/kg for H460. TH2953 concentrations in the brain, liver and tumor were 55.0-73.8%, 297-541% and 2.08-8.34% of the concentrations in plasma in the A549 tumor xenograft. […] In the A549 xenograft, the preferential activation of TH2953 was more pronounced as the concentrations of TH2660 in the tumor were ˜5-7-fold greater than for TH2953, while they were only ˜13-15% in the liver.

[7] = Example 4-F body weight change, H460 xenograft study; format: in vivo, female nude mice (nu/nu); conditions: ip
Experimental: as §1
(§5) The compounds TH-2953 and TH-3040 were tested in a H460 model. The compounds were dosed as follows. A dose-dependent TH-2953 was given IP once, from 6.25 to 100 mg/kg, comparing with daily IP: 5 doses then 2 days off then 5 more doses starting at 100 mm^3 tumors on day 1 (10 animals per group average tumor volume). TH-3040 was administered IP once. The antitumor effects and the safety of administration are graphically illustrated below.

[8] = Example 4-D body weight change and lethal toxicity, A549 xenograft study; format: in vivo, female nude mice (nu/nu); conditions: 40 mg/kg IP QD × 5/wk × 2 wks
Experimental: as §1, §4

H460 NSCLC xenograft = experiment: Example 4-F antitumor efficacy, ectopic H460 NSCLC xenograft model; format: in vivo, female nude mice (nu/nu); conditions: ip
From the text: as §2, §3, §1, §5

[9] = 10 mg/kg, TH2953 10 mg/kg single ip, A549 xenograft
[10] = 10 mg/kg, TH2953 10 mg/kg single ip, H460 xenograft
[11] = 40 mg/kg, TH2953 40 mg/kg single ip, A549 xenograft

With CC(OP(=O)(N1CC1)N1CC1)c1ccc([N+](=O)[O-])c(Oc2cccnc2)c1 (stereo not shown) [Compound 2852] the “Max. BW loss %” value [1] was 0.0%, the “TGD 500” value [2] was >72 days and the TGI [2] was 95.1%. For the same compound, the IC50 (H460 cells) was 20 nM, the “TGD 500” value [3] was 3 days and the “TGD 1000” value [3] was 1 days. For the same compound, the inhibition in vivo at 10 mg/kg [3] was 12.4% and the “Max. BW loss %” value [4] was 2.6%.

In the case of CN(C)C(=O)c1cccc(Oc2cc(COP(=O)(N3CC3)N3CC3)ccc2[N+](=O)[O-])c1 [Compound 2889], the “Max. BW loss %” value [1] is reported as 1.1%, the AUC [5] is reported as 598 ng·h/mL and the Cmax [5] is reported as 2480 ng/mL. The Tmax [5] was 5 min, the half-life [5] was 10.3 min and the “TGD 500” value [2] was 62 days. For the same compound, the TGI [2] was 90.1%, the IC50 (H460 cells) was 3 nM and the “TGD 500” value [3] was 13 days. For the same compound, the “TGD 1000” value [3] was 15 days, the inhibition in vivo at 10 mg/kg [3] was 75.6% and the “Max. BW loss %” value [4] was 0%.

In the case of CC(OP(=O)(N1CC1)N1CC1)c1ccc([N+](=O)[O-])c(Oc2ccc(-c3ccccc3)cc2)c1 (stereo not shown) [Compound 2953], the “TGD 500” value (A549 NSCLC xenograft) is reported as 64 days, the TGI (A549 NSCLC xenograft) is reported as 93.8% and the Kp ([6]; brain (relative to plasma), read-out: concentration in the brain as % of the concentrations in plasma) is reported as 0.55 to 0.738. The Kp ([6]; liver (relative to plasma), read-out: concentration in the liver as % of the concentrations in plasma) was 2.97 to 5.41, the AUC [6, 9] was 4430 ng·h/mL and the Cmax [6, 9] was 149 ng/mL. The Tmax [6, 9] was 30 min, the half-life [6, 9] was 100 min and the AUC [6, 10] was 7400 ng·h/mL. It also gave a Cmax [6, 10] of 2330 ng/mL, a Tmax [6, 10] of 15 min and a half-life [6, 10] of 142 min. It also gave an AUC [6, 11] of 39000 ng·h/mL, a Cmax [6, 11] of 14800 ng/mL and a Tmax [6, 11] of 30 min. The half-life [6, 11] was 91.3 min, the Kp ([6]; tumor (relative to plasma), read-out: concentration in the tumor as % of the concentrations in plasma) was 0.0208 to 0.0834 and the “Max. BW loss %” value ([7]; 6.25 mpk, once) was 0.0%. The “Max. BW loss %” value ([7]; 12.5 mpk, once) was 0.0%, the “Max. BW loss %” value ([7]; 25 mpk, once) was 0.2% and the “Max. BW loss %” value ([7]; 40 mpk, QD × 5/wk × 2ks) was 0.0%. For the same compound, the “Max. BW loss %” value ([7]; 50 mpk, once) was 0.0%, the “Max. BW loss %” value ([7]; 100 mpk, once) was 0.0% and the IC50 (H460 cells) was 5 nM. For the same compound, the “Max. BW loss %” value [8] was 1.6%, the “Lethal Tox” value ([8]; 10 animals per group) was 0 and the “TGD 500” value (H460 NSCLC xenograft; 6.25 mpk, once) was 16 days. The “TGD 1000” value (H460 NSCLC xenograft; 6.25 mpk, once) was 17 days, the TGI (H460 NSCLC xenograft; 6.25 mpk, once) was 72.2% and the “TGD 500” value (H460 NSCLC xenograft; 12.5 mpk, once) was 18 days. The “TGD 1000” value (H460 NSCLC xenograft; 12.5 mpk, once) was 21 days, the TGI (H460 NSCLC xenograft; 12.5 mpk, once) was 78.2% and the “TGD 500” value (H460 NSCLC xenograft; 25 mpk, once) was 18 days. The “TGD 1000” value (H460 NSCLC xenograft; 25 mpk, once) was 20 days, the TGI (H460 NSCLC xenograft; 25 mpk, once) was 86.1% and the “TGD 500” value (H460 NSCLC xenograft; 40 mpk, QD × 5/wk × 2ks) was 54 days. The “TGD 1000” value (H460 NSCLC xenograft; 40 mpk, QD × 5/wk × 2ks) was 65 days, the TGI (H460 NSCLC xenograft; 40 mpk, QD × 5/wk × 2ks) was 105.8% and the “TGD 500” value (H460 NSCLC xenograft; 50 mpk, once) was 19 days. The “TGD 1000” value (H460 NSCLC xenograft; 50 mpk, once) was 19 days, the TGI (H460 NSCLC xenograft; 50 mpk, once) was 90.4% and the “TGD 500” value (H460 NSCLC xenograft; 100 mpk, once) was 24 days. For the same compound, the “TGD 1000” value (H460 NSCLC xenograft; 100 mpk, once) was 27 days and the TGI (H460 NSCLC xenograft; 100 mpk, once) was 97.7%.
